In patent US20220370440A1 (Lead Discovery Center GmbH, priority 2018, published 2022):

Experiments:
EGFR T790ML858R = EGFR T790ML858R (Homo sapiens, UniProt P00533, L858R/T790M); assay: EGFR T790ML858R Lance assay; format: biochemical
Protocol: (§1) Inhibition is indicated as […] [nM] (“−”=not measured). Compounds having an activity designated as “A” provided an IC50≤100 nM; compounds having an activity designated as “B” provided an 100 nM<IC50≤500 nM; compounds having an activity designated as “C” provided an 500 nM<IC50≤1000 nM; compounds having an activity designated as “D” provided an 1000 nM<IC50≤100000 nM; and compounds having an activity designated as “E” provided an IC50>10000 nM.

[1] = Metabolic stability in mouse liver microsomes without cofactor NADPH; format: in vitro ADME; details: 3 μM test compound, mouse liver microsomes, without NADPH, 50 min, 37° C., LC-MS/MS
Procedure, shortened: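 Test compound (3 μM) was incubated with mouse liver microsomes without NADPH at 37° C. Depletion was followed by LC-MS/MS over time up to 50 min.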

[2] = molecular target: EGFR Exon 20 INSNPH Ba/F3 (Homo sapiens, UniProt P00533, DUP771-773, cells depend on it); assay: EGFR Exon 20 INSNPH Ba/F3 CellTiter-Glo; format: cell-based; details: CellTiter-Glo, 72 h, read-out: EGFR Exon 20 INSNPH Ba/F3 CTG IC50
Sequence of EGFR Exon 20 INSNPH Ba/F3 (P00533 with tags, fused parts or gaps DUP771-773): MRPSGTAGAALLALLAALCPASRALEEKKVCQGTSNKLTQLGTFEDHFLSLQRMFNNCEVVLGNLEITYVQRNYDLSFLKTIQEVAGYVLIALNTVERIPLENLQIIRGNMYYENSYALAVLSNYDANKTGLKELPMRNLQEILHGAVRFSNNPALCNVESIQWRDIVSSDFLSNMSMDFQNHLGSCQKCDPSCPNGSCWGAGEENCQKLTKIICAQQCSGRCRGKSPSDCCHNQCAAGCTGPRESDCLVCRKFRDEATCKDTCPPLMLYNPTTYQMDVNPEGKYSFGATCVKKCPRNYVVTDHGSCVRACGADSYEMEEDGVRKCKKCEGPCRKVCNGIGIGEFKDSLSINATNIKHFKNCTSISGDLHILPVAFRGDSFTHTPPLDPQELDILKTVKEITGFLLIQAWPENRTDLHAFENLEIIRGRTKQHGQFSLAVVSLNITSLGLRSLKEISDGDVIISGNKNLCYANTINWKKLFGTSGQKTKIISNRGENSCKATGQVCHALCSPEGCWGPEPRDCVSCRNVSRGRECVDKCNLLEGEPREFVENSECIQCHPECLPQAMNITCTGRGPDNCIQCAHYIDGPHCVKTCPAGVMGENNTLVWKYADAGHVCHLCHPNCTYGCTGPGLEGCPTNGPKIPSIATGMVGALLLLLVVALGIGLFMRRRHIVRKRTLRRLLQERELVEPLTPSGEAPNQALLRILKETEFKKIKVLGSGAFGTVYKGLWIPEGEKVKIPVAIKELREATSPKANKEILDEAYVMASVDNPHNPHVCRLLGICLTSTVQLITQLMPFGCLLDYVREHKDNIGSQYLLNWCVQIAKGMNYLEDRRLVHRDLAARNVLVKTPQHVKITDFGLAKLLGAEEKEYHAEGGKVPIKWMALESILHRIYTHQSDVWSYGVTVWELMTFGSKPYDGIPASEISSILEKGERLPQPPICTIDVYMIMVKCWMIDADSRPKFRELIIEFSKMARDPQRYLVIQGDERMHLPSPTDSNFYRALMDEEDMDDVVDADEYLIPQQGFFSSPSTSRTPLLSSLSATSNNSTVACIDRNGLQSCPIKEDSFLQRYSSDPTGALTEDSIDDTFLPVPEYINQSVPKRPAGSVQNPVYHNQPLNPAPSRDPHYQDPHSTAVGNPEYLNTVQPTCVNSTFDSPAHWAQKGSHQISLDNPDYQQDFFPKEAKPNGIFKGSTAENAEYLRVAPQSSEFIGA
Procedure, shortened: (§2)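 ATP-based luminescence (CellTiter-Glo) after 72 h compound exposure gives viability; IC50 from dose-response fit. Cells seeded 24 h ahead at 37 °C, 5% CO2. Controls: DMSO vehicle and 10 μM staurosporine; runs kept only if Z′ ≥0.5.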

EGFR wt = EGFR wt (Homo sapiens, UniProt P00533); assay: EGFR wt Lance assay; format: biochemical
Protocol: as §1

H1975 = H1975 CellTiter-Glo; format: cell-based; details: Homo sapiens, NCI-H1975; 72 h compound incubation; read-out: H1975 CTG IC50
Procedure, shortened: (§3)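 Cells were seeded, left 24 h at 37° C. and 5% CO2, then exposed to compounds in DMSO at different concentrations for a further 72 h. Viability was read as ATP-dependent luminescence (CellTiter-Glo), and IC50 values were obtained from dose-response fits against DMSO and 10 μM Staurosporine controls.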

HER2 INS YVMA = molecular target: T1, HER2 INS YVMA (Homo sapiens, UniProt P04626, INS775YVMA); assay: Lance Kinase Activity Assay, HER2 INS YVMA (Her2 Exon 20 INSYVMA Lance); format: biochemical; details: biochemical Lance assay
T1 construct: purchased DPF
T1 sequence (P04626 with tags, fused parts or gaps INS775YVMA): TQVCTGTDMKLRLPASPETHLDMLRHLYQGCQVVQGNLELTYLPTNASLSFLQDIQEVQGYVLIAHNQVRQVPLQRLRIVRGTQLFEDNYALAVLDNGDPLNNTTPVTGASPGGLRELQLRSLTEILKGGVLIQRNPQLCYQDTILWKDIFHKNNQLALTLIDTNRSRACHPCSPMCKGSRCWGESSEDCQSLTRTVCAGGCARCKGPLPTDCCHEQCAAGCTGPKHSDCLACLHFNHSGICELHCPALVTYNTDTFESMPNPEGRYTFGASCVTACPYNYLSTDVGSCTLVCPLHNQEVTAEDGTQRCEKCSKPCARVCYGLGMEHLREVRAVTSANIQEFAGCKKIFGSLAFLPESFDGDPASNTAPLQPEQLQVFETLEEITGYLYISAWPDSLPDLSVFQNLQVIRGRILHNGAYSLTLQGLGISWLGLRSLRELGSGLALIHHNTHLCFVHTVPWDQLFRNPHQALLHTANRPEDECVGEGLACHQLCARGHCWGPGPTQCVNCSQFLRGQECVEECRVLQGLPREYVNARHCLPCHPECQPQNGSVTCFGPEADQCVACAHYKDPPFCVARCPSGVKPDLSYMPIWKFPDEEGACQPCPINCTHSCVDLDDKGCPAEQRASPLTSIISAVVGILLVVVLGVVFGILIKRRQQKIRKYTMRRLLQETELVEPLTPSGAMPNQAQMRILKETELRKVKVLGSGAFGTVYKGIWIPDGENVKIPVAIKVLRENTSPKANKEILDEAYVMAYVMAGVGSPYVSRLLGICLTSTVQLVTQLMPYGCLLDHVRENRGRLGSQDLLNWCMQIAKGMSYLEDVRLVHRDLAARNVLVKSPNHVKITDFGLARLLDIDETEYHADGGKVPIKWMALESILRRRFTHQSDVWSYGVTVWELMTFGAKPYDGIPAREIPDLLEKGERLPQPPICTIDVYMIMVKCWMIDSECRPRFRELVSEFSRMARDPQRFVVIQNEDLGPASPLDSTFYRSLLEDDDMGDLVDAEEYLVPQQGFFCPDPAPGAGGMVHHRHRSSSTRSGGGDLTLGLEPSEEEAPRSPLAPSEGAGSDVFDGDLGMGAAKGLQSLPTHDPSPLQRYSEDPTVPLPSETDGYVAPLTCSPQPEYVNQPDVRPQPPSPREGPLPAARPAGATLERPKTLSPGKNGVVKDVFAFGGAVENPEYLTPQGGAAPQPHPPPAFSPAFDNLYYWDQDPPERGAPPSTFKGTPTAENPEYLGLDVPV
Procedure, shortened: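 Kinase phosphorylates a ULight-labelled peptide substrate; Eu anti-phospho antibody gives TR-FRET (ex 340 nm, em 665/615 nm). Compounds in 1:3 serial dilution over 8 steps, reaction started with ATP, 1 h at room temperature, stopped with EDTA-containing detection mix for 1 h. IC50 from sigmoidal dose-response curves.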

A431 = A431 CellTiter-Glo; format: cell-based; details: Homo sapiens, A-431; 72 h compound incubation; read-out: A431 CTG IC50
Procedure, shortened: as §3

[3] = molecular target: Her2 Exon 20 INSYVMA Ba/F3 (Homo sapiens, UniProt P04626, DUP772-775, cells depend on it); assay: Her2 Exon 20 INSYVMA Ba/F3 CellTiter-Glo; format: cell-based; details: CellTiter-Glo, 72 h, read-out: Her2 Exon 20 INSYVMA Ba/F3 CTG IC50
Sequence of Her2 Exon 20 INSYVMA Ba/F3 (P04626 with tags, fused parts or gaps DUP772-775): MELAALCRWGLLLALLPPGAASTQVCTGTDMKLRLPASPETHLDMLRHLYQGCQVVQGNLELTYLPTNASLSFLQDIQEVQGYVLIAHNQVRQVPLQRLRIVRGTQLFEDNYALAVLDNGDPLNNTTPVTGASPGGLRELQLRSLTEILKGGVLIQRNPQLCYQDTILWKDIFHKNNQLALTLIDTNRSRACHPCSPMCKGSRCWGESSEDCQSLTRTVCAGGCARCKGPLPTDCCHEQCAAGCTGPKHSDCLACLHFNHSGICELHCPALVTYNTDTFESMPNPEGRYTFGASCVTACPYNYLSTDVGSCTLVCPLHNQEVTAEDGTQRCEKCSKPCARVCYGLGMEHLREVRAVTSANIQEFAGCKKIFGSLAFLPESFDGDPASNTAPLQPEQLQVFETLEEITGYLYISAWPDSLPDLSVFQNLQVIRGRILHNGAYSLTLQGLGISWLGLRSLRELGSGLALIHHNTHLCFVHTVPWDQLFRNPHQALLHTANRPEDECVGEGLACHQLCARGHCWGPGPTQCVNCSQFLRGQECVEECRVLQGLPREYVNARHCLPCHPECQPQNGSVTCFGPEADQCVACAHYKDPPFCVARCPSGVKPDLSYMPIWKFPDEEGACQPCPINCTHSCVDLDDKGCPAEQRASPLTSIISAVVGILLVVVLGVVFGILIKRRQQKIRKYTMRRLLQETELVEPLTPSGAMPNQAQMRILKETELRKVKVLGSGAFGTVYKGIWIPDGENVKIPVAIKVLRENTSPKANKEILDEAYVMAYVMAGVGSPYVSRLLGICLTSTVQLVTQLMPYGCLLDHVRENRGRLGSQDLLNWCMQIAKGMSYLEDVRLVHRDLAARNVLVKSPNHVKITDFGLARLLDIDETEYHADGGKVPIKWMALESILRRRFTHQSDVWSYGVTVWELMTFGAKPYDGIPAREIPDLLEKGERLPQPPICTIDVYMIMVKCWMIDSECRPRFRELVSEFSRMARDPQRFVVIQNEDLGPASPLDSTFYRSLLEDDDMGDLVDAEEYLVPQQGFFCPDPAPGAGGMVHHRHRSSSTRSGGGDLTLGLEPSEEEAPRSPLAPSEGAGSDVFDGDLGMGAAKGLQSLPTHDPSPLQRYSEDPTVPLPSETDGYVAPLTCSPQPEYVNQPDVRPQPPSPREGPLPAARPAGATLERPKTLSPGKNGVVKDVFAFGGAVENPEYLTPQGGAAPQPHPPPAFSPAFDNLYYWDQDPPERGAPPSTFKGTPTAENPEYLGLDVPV
Procedure, shortened: as §2

Sequence of EGFR T790ML858R (P00533 25-1210 T790M/L858R): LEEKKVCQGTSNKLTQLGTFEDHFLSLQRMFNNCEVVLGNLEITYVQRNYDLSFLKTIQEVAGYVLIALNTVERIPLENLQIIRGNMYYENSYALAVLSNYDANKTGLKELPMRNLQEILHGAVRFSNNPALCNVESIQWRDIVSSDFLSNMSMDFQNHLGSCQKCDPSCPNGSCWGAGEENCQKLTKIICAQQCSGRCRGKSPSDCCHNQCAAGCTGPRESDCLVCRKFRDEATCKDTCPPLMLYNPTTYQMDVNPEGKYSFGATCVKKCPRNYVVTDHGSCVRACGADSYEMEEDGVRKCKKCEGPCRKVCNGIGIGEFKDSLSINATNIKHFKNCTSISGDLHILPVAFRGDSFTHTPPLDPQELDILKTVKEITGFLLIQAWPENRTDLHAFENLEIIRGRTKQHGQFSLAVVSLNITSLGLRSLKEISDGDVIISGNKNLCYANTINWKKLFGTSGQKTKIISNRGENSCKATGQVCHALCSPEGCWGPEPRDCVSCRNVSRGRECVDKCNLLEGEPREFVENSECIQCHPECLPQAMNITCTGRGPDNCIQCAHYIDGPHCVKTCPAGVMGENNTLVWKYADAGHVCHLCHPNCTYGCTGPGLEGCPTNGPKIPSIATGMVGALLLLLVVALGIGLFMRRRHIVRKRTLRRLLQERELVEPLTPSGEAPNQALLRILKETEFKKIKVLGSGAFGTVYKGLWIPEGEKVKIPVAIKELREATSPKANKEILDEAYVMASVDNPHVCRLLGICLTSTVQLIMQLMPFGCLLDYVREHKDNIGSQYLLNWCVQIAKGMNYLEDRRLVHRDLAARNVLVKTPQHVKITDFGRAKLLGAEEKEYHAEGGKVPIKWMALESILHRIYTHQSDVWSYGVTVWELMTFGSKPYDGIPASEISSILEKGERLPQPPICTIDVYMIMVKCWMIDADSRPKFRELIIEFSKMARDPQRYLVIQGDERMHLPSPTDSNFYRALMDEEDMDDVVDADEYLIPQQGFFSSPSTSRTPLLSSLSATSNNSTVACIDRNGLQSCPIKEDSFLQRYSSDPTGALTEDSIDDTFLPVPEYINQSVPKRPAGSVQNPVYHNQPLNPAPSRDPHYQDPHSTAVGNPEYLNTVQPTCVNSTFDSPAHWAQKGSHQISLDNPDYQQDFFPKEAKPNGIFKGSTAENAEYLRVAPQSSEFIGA

| Compound | IC50 (EGFR T790ML858R) [nM] | Stability in presence of mouse liver microsomes without cofactor NADPH [% remaining after 50 min] [1] [% remaining after 50 min] | GI50 [2] [nM] | IC50 (EGFR wt) [nM] | IC50 (H1975) [nM] | IC50 (HER2 INS YVMA) [nM] | IC50 (A431) [nM] | GI50 [3] [nM] |
| --- | --- | --- | --- | --- | --- | --- | --- | --- |
| C=CC(=O)Nc1cc(-c2c(-c3cnc(N4CCOCC4)nc3)[nH]c3nccc(Cl)c23)ccc1C [Example 36, N-(5-(4-chloro-2-(2-morpholinopyrimidin-5-yl)-1H-pyrrolo[2,3-b]pyridin-3-yl)-2-methylphenyl)acrylamide] | ≤ 100 | >99 | 1000 to 10000 | ≤ 100 | 100 to 500 | 500 to 1000 | 1000 to 100000 | 1000 to 10000 |
| C=CC(=O)Nc1cc(-c2c(-c3cccc(CN(C)C)c3)[nH]c3ncc(C(=O)OC(C)C)cc23)ccc1C [Example 187, isopropyl 3-(3-acrylamido-4-methylphenyl)-2-(3-((dimethylamino)methyl)phenyl)-1H-pyrrolo[2,3-b]pyridine-5-carboxylate] | ≤ 100 | >99 | 100 to 500 | ≤ 100 | 100 to 500 | ≤ 100 | 1000 to 100000 | 100 to 500 |
| C=CC(=O)Nc1cc(-c2c(-c3ccc(N4CCN(C(C)C)CC4)cc3)[nH]c3nccc(Cl)c23)ccc1C [Example 41, N-(5-(4-chloro-2-(4-(4-isopropylpiperazin-1-yl)phenyl)-1H-pyrrolo[2,3-b]pyridin-3-yl)-2-methylphenyl)acrylamide] | ≤ 100 | >99 | ≤ 100 | ≤ 100 | ≤ 100 | ≤ 100 | 100 to 500 | ≤ 100 |
| C=CC(=O)Nc1cc(-c2c(-c3ccc(N4CCN(C)CC4)nc3)[nH]c3nccc(Cl)c23)ccc1C [Example 19, N-(5-(4-chloro-2-(6-(4-methylpiperazin-1-yl)pyridin-3-yl)-1H-pyrrolo[2,3-b]pyridin-3-yl)-2-methylphenyl)acrylamide] | ≤ 100 | >99 | 500 to 1000 | ≤ 100 | 100 to 500 | 100 to 500 | 1000 to 100000 | 500 to 1000 |
| C=CC(=O)Nc1cc(-c2c(-c3ccc(C4CCN(C)CC4)cc3)[nH]c3ncc(C(=O)OC(C)C)cc23)cc(F)c1C [Example 179, isopropyl 3-(3-acrylamido-5-fluoro-4-methylphenyl)-2-(4-(1-methylpiperidin-4-yl)phenyl)-1H-pyrrolo[2,3-b]pyridine-5-carboxylate] | ≤ 100 | >99 | 100 to 500 | ≤ 100 | 100 to 500 | ≤ 100 | 1000 to 100000 | 100 to 500 |
| C=CC(=O)N1CCc2ccc(-c3c(-c4ccc(N5CCN(C)CC5)nc4)[nH]c4nccc(Cl)c34)cc21 [Example 70, 1-(6-(4-chloro-2-(6-(4-methylpiperazin-1-yl)pyridin-3-yl)-1H-pyrrolo[2,3-b]pyridin-3-yl)indolin-1-yl)prop-2-en-1-one] | ≤ 100 | >99 | 500 to 1000 | ≤ 100 | 100 to 500 | ≤ 100 | 500 to 1000 | 100 to 500 |
| C=CC(=O)Nc1cc(-c2c(-c3ccc(N4CCN(CC)CC4)cc3)[nH]c3nccc(Cl)c23)ccc1C [Example 40, N-(5-(4-chloro-2-(4-(4-ethylpiperazin-1-yl)phenyl)-1H-pyrrolo[2,3-b]pyridin-3-yl)-2-methylphenyl)acrylamide] | ≤ 100 | >99 | ≤ 100 | ≤ 100 | ≤ 100 | ≤ 100 | 100 to 500 | ≤ 100 |
| C=CC(=O)Nc1cc(-c2c(-c3ccc(N4CCN(C)CC4)cc3)[nH]c3ncc(C(=O)O)cc23)ccc1C [Example 116, 3-(3-acrylamido-4-methylphenyl)-2-(4-(4-methylpiperazin-1-yl)phenyl)-1H-pyrrolo[2,3-b]pyridine-5-carboxylic acid 2,2,2-trifluoroacetate] | ≤ 100 | 92 | > 10000 | ≤ 100 | > 10000 | ≤ 100 | > 10000 | > 10000 |
| C=CC(=O)N1CCc2ccc(-c3c(-c4ccc(N(C)CCN(C)C)cc4)[nH]c4nccc(Cl)c34)cc21 [Example 65, 1-(6-(4-chloro-2-(4-((2-(dimethylamino)ethyl)(methyl)amino)phenyl)-1H-pyrrolo[2,3-b]pyridin-3-yl)indolin-1-yl)prop-2-en-1-one] | ≤ 100 | >99 | 500 to 1000 | ≤ 100 | ≤ 100 | ≤ 100 | 500 to 1000 | 100 to 500 |
| C=CC(=O)N1CCc2ccc(-c3c(-c4cccc(OCCN5CCCC5)c4)[nH]c4nccc(OCC)c34)cc21 [Example 109, 1-(6-(4-ethoxy-2-(3-(2-(pyrrolidin-1-yl)ethoxy)phenyl)-1H-pyrrolo[2,3-b]pyridin-3-yl)indolin-1-yl)prop-2-en-1-one] | ≤ 100 | 77 | 100 to 500 | ≤ 100 | ≤ 100 | ≤ 100 | 500 to 1000 | 100 to 500 |
| C=CC(=O)Nc1cc(-c2c(-c3ccc(N4CCN(C)CC4)cc3)[nH]c3ncc(C(=O)OCC)cc23)ccc1C [Example 135, ethyl 3-(3-acrylamido-4-methylphenyl)-2-(4-(4-methylpiperazin-1-yl)phenyl)-1H-pyrrolo[2,3-b]pyridine-5-carboxylate] | ≤ 100 | 95 | 100 to 500 | ≤ 100 | ≤ 100 | ≤ 100 | 1000 to 100000 | 100 to 500 |
| C=CC(=O)N1CCOc2ccc(-c3c(-c4ccnc(N5CCN(C)CC5)c4)[nH]c4nccc(Cl)c34)cc21 [Example 98, 1-(6-(4-chloro-2-(2-(4-methylpiperazin-1-yl)pyridin-4-yl)-1H-pyrrolo[2,3-b]pyridin-3-yl)-2H-benzo[b][1,4]oxazin-4(3H)-yl)prop-2-en-1-one 2,2,2-trifluoroacetate] | ≤ 100 | >99 | 100 to 500 | ≤ 100 | 100 to 500 | ≤ 100 | 500 to 1000 | 100 to 500 |
| C=CC(=O)Nc1cc(-c2c(-c3cnc(N4CCN(C)CC4)nc3)[nH]c3nccc(Cl)c23)ccc1C [Example 39, N-(5-(4-chloro-2-(2-(4-methylpiperazin-1-yl)pyrimidin-5-yl)-1H-pyrrolo[2,3-b]pyridin-3-yl)-2-methylphenyl)acrylamide] | ≤ 100 | >99 | 1000 to 10000 | ≤ 100 | 100 to 500 | 100 to 500 | 1000 to 100000 | 500 to 1000 |
| C=CC(=O)N1CCc2ccc(-c3c(-c4ccc(N5CCN(C(C)C)CC5)cc4)[nH]c4nccc(Cl)c34)cc21 [Example 62, 1-(6-(4-chloro-2-(4-(4-isopropylpiperazin-1-yl)phenyl)-1H-pyrrolo[2,3-b]pyridin-3-yl)indolin-1-yl)prop-2-en-1-one] | ≤ 100 | >99 | 100 to 500 | ≤ 100 | ≤ 100 | ≤ 100 | 500 to 1000 | 100 to 500 |
